# Reference: BindingDB's records for doi:10.1021/jm00011a008 (Upjohn, 1995)
# Target: T1, Dimer of Gag-Pol polyprotein [489-587] (Human immunodeficiency virus 1, UniProt P12497)
# T1 construct: 489-587
# Assay: Protease Inhibition Assay
# Details: pH 5; 22 °C
# Description: HIV-1 protease was purified and refolded from E. coli inclusion bodies. […] In the presence of HIV-l protease, the substrate is rapidly cleaved into two parts. The biotinylated amino terminal fragment binds to the avidin beads while the FITC-containing carboxy1 terminal fragment is removed through the membrane. […] The bound fluorescence is obtained by processing on an IDEXX Screen Machine. Determination of Ki values with this assay requires analysis under conditions in which substrate concentration resides substantially below Km and the inhibitor concentrations greatly exceeds the Ki value and the enzyme concentration.
row,Compound,Ki [µM]
1,"O=c1oc2c(c(O)c1C(c1ccccc1)c1ccccc1)CCCCCC2 [3-(Diphenylmethyl)-5,6,7,8,9,1O-hexahydro-4-hydroxy-W-cycloocta[b]pyran-2-one]",0.18
2,"CCCC(c1ccccc1)c1c(O)c2c(oc1=O)CCCCCC2 (stereo not given) [4-hydroxy-3-(1-phenylbutyl)-2H,5H,6H,7H,8H,9H,10H-cycloocta[b]pyran-2-one]",0.029
3,"CC(C)C(c1ccccc1)c1c(O)c2c(oc1=O)CCCCCC2 (stereo not given) [5,6,7,8,9,1O-Hexahydro-4-hydroxy-3-(2-methyl-nylpropyl)-W-cycloocta[b]pyran-2-one]",0.022
4,"CC(C)CC(c1ccccc1)c1c(O)c2c(oc1=O)CCCCCC2 (stereo not drawn) [5,6,7,8,9,1O-Hexahydro-4-hydroxy-3-(3-methyl-l-phe-nylbutyl)-W-cycloocta[b]pyran-2-one]",0.09
5,"CCCCC(c1ccccc1)c1c(O)c2c(oc1=O)CCCCCC2 (stereo not given) [5,6,7,8,9,10-Hexahydroro-4-hydroxy-1-phenylpentyl)-W-cycloocta[blpyran-2-one]",0.062
